These results are taken from article PMC13586173, “Synthetic cannabinoid receptor agonists inhibit the cardiac voltage-gated potassium channel hERG” (Acta Pharmacologica Sinica, 2026).

SMILES strings stand for the structures. Where two headings read alike, the source gives them in different places.

The target of one series is hERG (KV11.1) (Homo sapiens, UniProt Q12809). Description: Automated planar patch-clamp (APC, QPatch II 48), voltage-ladder protocol, CHO cells stably expressing human hERG. Conditions: for effect on Gmax of hERG (in words): APC concentration-response, 1.11 to 30 µM; for hERG channel Efficacy (max reduction in Gmax) Gmin: 0 = complete reduction. The source says: To assess the effect of a large set of SCRAs on hERG (see SI Table I and SI Fig. S1 for a list of the 36 included SCRAs and corresponding structures), we used the automated planar patch-clamp (APC) technique on mammalian Chinese hamster ovary (CHO) cells stably expressing human hERG. […] We employed a voltage-ladder protocol to obtain information on SCRA effects on the channel’s voltage dependence of activation (V50) and maximal conductance (Gmax) (both determined from Boltzmann fits of the instantaneous tail currents; see Methods for details).
Stably expressing cell lines “CHO-hERG DUO” (here referred to as hERG; gene: KCNH2) and “CHO-KVLQT1/mink” (here referred to as KV7.1/KCNE1; gene: KCNQ1/KCNE1), (B’SYS GmBH, Witterswil, Switzerland) were used to study whole-cell K^+ currents on a QPatch II 48 APC system (Sophion Bioscience A/S, Ballerup, Denmark). Cell culture and passaging were performed in accordance with standard operating procedures. Cells were harvested in serum-free medium with Detachin^TM (Genlantis, CA, USA) immediately prior to experiments. For MPC on transient cell lines, CHO-K1 CCL-61 cells (ATCC, Manassas, VA, USA) were cultured in Ham’s F-12 medium supplemented with 10% fetal bovine serum (FBS) and 100 U/mL penicillin–100 µg/mL streptomycin (Gibco, Thermo Fisher Scientific, Waltham, MA, USA). Transfection was carried out using JetOPTIMUS® reagent (Polyplus, Strasbourg, France) according to the manufacturer’s protocol. Briefly, 80,000 cells were seeded per well in a 12-well plate and transfected with 300 ng of pcDNA3-GFP plasmid, 700 ng of pcDNA3-hERG plasmid with either the wild-type or mutant channels (S624A, S649A, or Y652A), and […] of JetOPTIMUS. After 8 h, cells were detached and reseeded at a density of 30,000 cells per well onto several poly-D-lysine-coated glass coverslips placed in a 12-well plate. For the CB1 receptor activity assay, the AequoScreen® recombinant Chinese hamster ovary (CHO) K1 cell line, stably expressing the human CB1 receptor (ES-110-A), was used (Revvity, Sollentuna, Sweden).
Automated patch-clamp recordings were performed at 22 °C. Freshly harvested cell suspensions (2–3 million cells/mL) were prepared for experiments by the QPatch II 48 automated cell preparation unit. Cells were centrifuged for 150 s at 150 × g and washed twice with the extracellular recording solution. Cells were handled by the integrated pipetting robot and added to the 48 experiment sites on the planar patch-clamp consumable QPlate. Each experiment site contained an individual pair of recording electrodes and a silicon/glass biochip embedded in the flow channels. Single-cell patch recordings (n = 1 is defined as one single-cell patch) and population patch recordings (up to 10 cells per well, n = 1 is defined as one population patch) were performed for hERG and for KV7.1/KCNE1, respectively. Cells were applied, positioned and sealed to the patch holes by a mild suction protocol; whole-cell access was then achieved by a stronger suction pulse.
The intracellular solution contained (in mM): 100 KCl, 4.3 CaCl2, 1.4 MgCl2, 25/10 KOH/EGTA, 24 KF, 10 HEPES, and 4 Mg-ATP (hERG) or 4 Na-ATP (KV7.1/KCNE1). […] The compounds were pre-diluted in DMSO, and the final concentration of DMSO (0.3%) was equal in all recording solutions to control for vehicle effects. The compounds made no contact with plastics following dilution in extracellular solution.
An overview of experimental conditions is provided in SI Table VII, Square voltage pulses in a voltage ladder protocol were used to study current/voltage (I(V)) relationships. Each voltage protocol was first run three times in the presence of vehicle (extracellular solution supplemented with 0.3% DMSO), the 3rd serving as the baseline. Voltage protocols were repeated in the presence of 4 cumulatively rising concentrations of test compound, followed by application of vehicle for recovery.
Background: The patch-clamp technique gives a direct electrical read-out from membranes.

A further series has as its target T1, human CB1 receptor (Homo sapiens, UniProt P21554).
T1 construct: host or cells: CHO-K1 stably expressing CB1, apoaequorin and Gα16
Put plainly: AequoScreen intracellular calcium release assay, CHO-K1 cells stably expressing CB1. Format: cell-based. Conditions: n ≥ 3 (JWH-030 n = 2); for CB1 receptor Efficacy Emax: normalized to maximum of JWH-018.

The target of another series is KV7.1/KCNE1 (Homo sapiens, UniProt P51787). Put plainly: Automated patch-clamp (APC, population patch), CHO cells stably expressing human KV7.1/KCNE1. Conditions: for KV7.1/KCNE1 channel Efficacy (max reduction in Gmax) Gmin: 1 = no reduction of Gmax, 0 = complete reduction; for KV7.1/KCNE1 channel Efficacy (max reduction in Gmax) Gmin, marked *: * Greatest efficacy achieved with a concentration between 10 and 30 µM (no fit). The format is cell-based. How it is done: Both hERG and KV7.1/KCNE1 contribute to cardiomyocyte repolarization (Fig. 1g). Inhibition of KV7.1/KCNE1 alone can be proarrhythmic. Moreover, under conditions with impaired hERG function, upregulation of KV7.1/KCNE1 has been proposed to partially compensate for the loss of hERG [38, 39]. […] To assess if SCRAs also affect KV7.1/KCNE1, we used mammalian CHO cells stably expressing human KV7.1/KCNE1. […] At 10 µM, 7 of the SCRAs caused a significant positive shift in V50 (Fig. 5e), with the largest shift induced by MDMB-[…] (ΔV50 = +10.3 ± 1.6 mV).
Automated patch-clamp recordings were performed at 22 °C.
For the KV7.1/KCNE1 voltage ladder protocol (SI Table VII) the solutions were present for 60 s before recording started. KV7.1/KCNE1 cells were kept at a holding voltage of −90 mV, with brief hyperpolarizing steps to −100 mV for 540 ms (to calculate ohmic leakage). […] The time between compound application and the first voltage protocol was 60 s. Time between sweeps was 15 s. The voltage ladder protocol was executed every 220 s.
For Gmax (rel.), N was set to –1. For ΔV50, N was set to 1.

Series [1] has as its system hERG. Conditions: cited from earlier work.
Series [2] concerns hERG. The following applies: cited from earlier work. This is another data set of the same source.
The conditions of series [3]: rats; cited from earlier work.
Setting [4] is: CB1 receptor Potency EC50, normalized to median EC50 of JWH-018.
[5] abbreviates: best fit, 1 = no reduction of Gmax, APC, 22 °C.
[6] abbreviates: experimentally observed effect of 10 µM, used in ORd simulation.
Setting [7] is: read-out: hERG channel Potency IC50 (Gmax reduction), APC, 22 °C, best fit.
The mark [8] stands for this setting: normalized to median EC50 of JWH-018, read-out: CB1 receptor Potency EC50.

T1 sequence (P21554 whole entry): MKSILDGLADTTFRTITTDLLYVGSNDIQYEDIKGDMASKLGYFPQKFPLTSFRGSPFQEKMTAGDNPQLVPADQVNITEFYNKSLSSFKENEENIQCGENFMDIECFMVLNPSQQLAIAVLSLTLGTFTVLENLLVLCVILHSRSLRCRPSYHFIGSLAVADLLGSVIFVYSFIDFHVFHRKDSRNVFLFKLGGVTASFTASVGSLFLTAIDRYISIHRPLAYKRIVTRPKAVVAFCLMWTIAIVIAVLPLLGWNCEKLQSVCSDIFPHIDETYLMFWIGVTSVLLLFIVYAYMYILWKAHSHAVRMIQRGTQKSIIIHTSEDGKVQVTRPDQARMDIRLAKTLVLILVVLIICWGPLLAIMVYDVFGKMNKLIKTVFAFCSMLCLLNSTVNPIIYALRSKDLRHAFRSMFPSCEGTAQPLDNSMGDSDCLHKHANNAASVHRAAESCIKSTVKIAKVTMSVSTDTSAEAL
Chain of hERG (KV11.1) (Q12809 whole entry): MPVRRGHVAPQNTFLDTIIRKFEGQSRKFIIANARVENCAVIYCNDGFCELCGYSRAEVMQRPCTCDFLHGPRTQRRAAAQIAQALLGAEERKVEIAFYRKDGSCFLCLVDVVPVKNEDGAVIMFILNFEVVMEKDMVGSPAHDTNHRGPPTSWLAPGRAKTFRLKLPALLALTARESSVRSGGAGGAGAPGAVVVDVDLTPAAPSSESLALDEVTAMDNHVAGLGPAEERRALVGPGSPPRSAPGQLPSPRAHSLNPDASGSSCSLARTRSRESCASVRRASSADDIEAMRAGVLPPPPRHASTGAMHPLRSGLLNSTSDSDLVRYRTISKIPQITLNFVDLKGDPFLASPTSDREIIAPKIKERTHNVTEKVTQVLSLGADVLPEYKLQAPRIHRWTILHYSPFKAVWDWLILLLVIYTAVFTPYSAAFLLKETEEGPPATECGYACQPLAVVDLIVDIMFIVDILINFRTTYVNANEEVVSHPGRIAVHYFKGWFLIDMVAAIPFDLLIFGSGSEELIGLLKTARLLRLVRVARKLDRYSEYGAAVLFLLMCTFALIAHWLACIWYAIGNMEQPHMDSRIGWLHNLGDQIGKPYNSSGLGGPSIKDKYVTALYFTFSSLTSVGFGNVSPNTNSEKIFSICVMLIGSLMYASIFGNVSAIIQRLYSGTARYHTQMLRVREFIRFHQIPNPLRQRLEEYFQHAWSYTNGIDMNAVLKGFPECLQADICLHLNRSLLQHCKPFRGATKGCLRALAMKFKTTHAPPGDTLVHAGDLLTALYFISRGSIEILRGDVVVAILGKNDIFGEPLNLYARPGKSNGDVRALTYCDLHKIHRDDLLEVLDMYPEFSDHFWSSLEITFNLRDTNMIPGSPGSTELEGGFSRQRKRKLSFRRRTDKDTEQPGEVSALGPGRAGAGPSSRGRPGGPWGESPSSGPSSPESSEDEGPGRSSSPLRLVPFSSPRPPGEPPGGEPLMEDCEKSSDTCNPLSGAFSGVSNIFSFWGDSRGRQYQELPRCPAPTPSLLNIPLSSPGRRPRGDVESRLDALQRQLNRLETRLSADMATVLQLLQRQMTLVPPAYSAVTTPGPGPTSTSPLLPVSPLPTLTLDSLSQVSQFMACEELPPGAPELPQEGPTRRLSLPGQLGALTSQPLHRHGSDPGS
Chain of KV7.1/KCNE1 (P51787 whole entry): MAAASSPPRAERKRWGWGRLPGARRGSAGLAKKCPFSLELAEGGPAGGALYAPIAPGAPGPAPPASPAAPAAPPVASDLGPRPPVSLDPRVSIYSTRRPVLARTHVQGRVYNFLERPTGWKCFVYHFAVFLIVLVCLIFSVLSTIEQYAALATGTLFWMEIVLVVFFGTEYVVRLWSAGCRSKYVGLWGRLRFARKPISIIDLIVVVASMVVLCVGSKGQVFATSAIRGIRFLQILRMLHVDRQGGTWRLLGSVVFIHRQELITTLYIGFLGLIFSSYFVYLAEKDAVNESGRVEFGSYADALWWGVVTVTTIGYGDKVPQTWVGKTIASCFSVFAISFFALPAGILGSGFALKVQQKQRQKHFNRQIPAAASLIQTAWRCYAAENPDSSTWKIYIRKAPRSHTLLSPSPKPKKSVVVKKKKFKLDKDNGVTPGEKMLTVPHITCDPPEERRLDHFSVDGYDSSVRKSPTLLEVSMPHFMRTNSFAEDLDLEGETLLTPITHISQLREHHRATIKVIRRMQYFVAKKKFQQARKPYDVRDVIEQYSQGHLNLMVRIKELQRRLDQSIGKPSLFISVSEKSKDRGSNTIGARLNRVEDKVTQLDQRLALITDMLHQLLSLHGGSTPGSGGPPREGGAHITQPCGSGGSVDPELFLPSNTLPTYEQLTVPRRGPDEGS

Turning to `O=C(NC12CC3CC(CC(C3)C1)C2)c1nn(CCCCCF)c2ccccc12` [5F-APINACA], the IC50 was > 100000 nM at hERG (KV11.1); 35100 nM against KV7.1/KCNE1; 2200 nM in the series on hERG [1] (read-out: hERG IC50, HEK293 cells, 37 °C). Further, at hERG (KV11.1) (? Unreliable values (fit failed QC, extrapolated)), the “hERG channel Efficacy (max reduction in Gmax) Gmin, marked ?” value is on record as 0.00. Besides, the “effect on Gmax of hERG (in words)” value on hERG (KV11.1) is reported as “inhibitory effects on Gmax”. Moreover, at human CB1 receptor (setting [4]), the EC50 (commonly the concentration at which the effect is half-maximal) amounted to 16.6 nM. In addition, at human CB1 receptor, the “CB1 receptor Efficacy Emax” value amounted to 102 % JWH-018. Moreover, the “Gmax effect on hERG versus KV7.1/KCNE1 (in words)” value at KV7.1/KCNE1 (10 µM, both channels by APC) is recorded as “only on KV7.1/KCNE1”. In addition, the “KV7.1/KCNE1 channel Efficacy (max reduction in Gmax) Gmin” value at KV7.1/KCNE1 (best fit) is given as 0. In the series with hERG [1], the “hERG inhibition (in words)” value is “inhibit hERG”.
As for `CC(C)(C)[C@H](NC(=O)Cc1cn(Cc2ccc(F)cc2)c2ccccc12)C(N)=O` [ADB-FUBIATA], the “hERG inhibition (in words)” value with hERG [1] was “inhibit hERG”.
`CCCCCn1ccc(C(=O)c2cccc3ccccc23)c1` [JWH-030]: the IC50 on hERG (KV11.1) is 23100 nM; against KV7.1/KCNE1, 12200 nM; in the series with hERG [2] (read-out: in vitro hERG IC50, test pulse 1 s), 88400 nM. Also, on hERG (KV11.1) (setting [5]), the “hERG channel Efficacy (max reduction in Gmax) Gmin” value came to 0.00. Further, the “remaining IKr (hERG Gmax)” value at hERG (KV11.1) (setting [6]) is recorded as 74%. At human CB1 receptor (setting [4]), the EC50 is 291 nM. Moreover, the “CB1 receptor Efficacy Emax” value at human CB1 receptor is recorded as 76.5 % JWH-018. Also, the “effect on KV7.1/KCNE1 (in words)” value at KV7.1/KCNE1 (APC) is “largest reduction in Gmax”. For the same compound, on KV7.1/KCNE1 (best fit), the “KV7.1/KCNE1 channel Efficacy (max reduction in Gmax) Gmin” value came out at 0. Moreover, the “remaining IKs (KV7.1/KCNE1 Gmax)” value on KV7.1/KCNE1 (setting [6]) is 49%. The “hERG inhibition (in words)” value in the series with hERG [2] is given as “inhibits the voltage-gated potassium channel hERG”. Besides, the “QT interval (in words)” value in series [3] was “prolongs the QT interval in rats”.
For `COC(=O)C(NC(=O)c1nn(CC2CCCCC2)c2ccccc12)C(C)(C)C` (stereo not shown) [MDMB-[…]], the IC50 against hERG (KV11.1) was 12400 nM. Also, the “hERG channel Efficacy (max reduction in Gmax) Gmin” value at hERG (KV11.1) (setting [5]) amounted to 0.60. The EC50 at human CB1 receptor (setting [4]) worked out at 1.4 nM. For the same compound, the “CB1 receptor Efficacy Emax” value on human CB1 receptor was found to be 106 % JWH-018. For the same compound, the “ΔV50 of KV7.1/KCNE1” value at KV7.1/KCNE1 (10 µM) is “+10.3 ± 1.6 mV”. In addition, at KV7.1/KCNE1, the “KV7.1/KCNE1 channel Efficacy (max reduction in Gmax) Gmin, marked *” value is 0.52.
On to `COC(=O)[C@@H](NC(=O)c1cn(CC2CCCCC2)c2ccccc12)C(C)C` [MMB-CHMICA], for which the “hERG channel Efficacy (max reduction in Gmax) Gmin” value on hERG (KV11.1) (setting [5]) was 0.75. Also, the IC50 on hERG (KV11.1) (setting [7]) came out at 2600 nM. In addition, at human CB1 receptor, the “CB1 receptor Efficacy Emax” value is listed as 109 % JWH-018. Besides, the EC50 at human CB1 receptor (setting [8]) was found to be 8.76 nM. For the same compound, the “KV7.1/KCNE1 channel Efficacy (max reduction in Gmax) Gmin” value at KV7.1/KCNE1 (best fit) amounted to 0.83.
Turning to `O=C(c1cccc2ccccc12)c1nn(CCCCCF)c2ccccc12` [THJ-2201], at hERG (KV11.1) (setting [5]), the “hERG channel Efficacy (max reduction in Gmax) Gmin” value came to 0.73. Further, the IC50 at hERG (KV11.1) (setting [7]) amounted to 2040 nM; at KV7.1/KCNE1 (APC, best fit, read-out: KV7.1/KCNE1 channel Potency IC50 (Gmax reduction)), 4700 nM. Further, the “CB1 receptor Efficacy Emax” value on human CB1 receptor amounted to 92.8 % JWH-018. The EC50 on human CB1 receptor (setting [8]) came out at 45.6 nM. The “effect on KV7.1/KCNE1 (in words)” value at KV7.1/KCNE1 (APC) is “well-defined concentration–response relationships for both effects”. Further, the “KV7.1/KCNE1 channel Efficacy (max reduction in Gmax) Gmin” value at KV7.1/KCNE1 (best fit) was 0.59.
For `CCCCCn1cc(C(=O)C2C(C)(C)C2(C)C)c2ccccc21` [UR-144], the “hERG channel Efficacy (max reduction in Gmax) Gmin, marked *” value on hERG (KV11.1) (* Greatest efficacy achieved with a concentration between 10 and 30 µM (no fit), 1 = no reduction of Gmax) turned out to be 0.94. Also, the “effect on Gmax of hERG (in words)” value at hERG (KV11.1) is listed as “non-inhibitor”. In addition, the EC50 at human CB1 receptor (setting [4]) was 414 nM. At human CB1 receptor, the “CB1 receptor Efficacy Emax” value is 101 % JWH-018. Also, on KV7.1/KCNE1, the “KV7.1/KCNE1 channel Efficacy (max reduction in Gmax) Gmin, marked *” value came out at 0.92.
As for `CC1(C)C(C(=O)c2cn(CCCCCF)c3ccccc23)C1(C)C` [XLR-11], at hERG (KV11.1), the IC50 worked out at 20400 nM and the “effect on Gmax of hERG (in words)” value is reported as “concentration-dependent inhibitory effects on Gmax”. The “hERG channel Efficacy (max reduction in Gmax) Gmin” value at hERG (KV11.1) (setting [5]) worked out at 0.54. In addition, the EC50 at human CB1 receptor (setting [4]) was 260 nM. On human CB1 receptor, the “CB1 receptor Efficacy Emax” value amounted to 105 % JWH-018. Also, the “KV7.1/KCNE1 channel Efficacy (max reduction in Gmax) Gmin, marked *” value at KV7.1/KCNE1 is given as 0.87.
